Values belong to the compound of their own block, whether it stands above or below them.
Tests used:
[1] = In vivo pharmacokinetic study in rats, intravenous DUT without or with intravenous KET; set-up: species or system rat; conditions: male, Sprague-Dawley, rat, plasma, iv, 2.5 mg/kg, n = 4
Excerpt: (§1) The animal experiment protocols used in the present study were approved by the Pusan National University-Institutional Animal Care and Use Committee for scientific care and ethical procedures (Busan, Korea; approval date: 01/05/2018; approval number: PNU-2018-1848). Male Sprague–Dawley rats (8-week-old; approximately 250 g) were purchased from DBL Co., Ltd. (Incheon, Korea). The rats were acclimatized in a clean room of the Laboratory Animal Center of Pusan National University (Busan, Korea) for 1 week. Then, they were fasted for 12 h prior to the pharmacokinetic experiment and then anesthetized by intramuscular injection of Zoletil at a dose of 20 mg/kg. The femoral vein and artery of the rats were cannulated with a polyethylene tube (BD Medical; Franklin Lakes, NJ, USA). At approximately 4–6 h after the surgery for cannulation, an intravenous dose of DUT (2.5 mg/kg) simultaneously with or without intravenous KET (20 mg/kg) or an oral dose of DUT (5 mg/kg) simultaneously with or without intravenous KET (20 mg/kg) was administered to the rats. Drugs were dissolved in a vehicle consisting of dimethyl sulfoxide, ethanol, and polyethylene glycol 400 at a ratio of 10:5:85 (v/v/v). Blood (approximately 200 μL) was collected in heparin pre-treated microcentrifuge tubes via the femoral artery at 0, 1, 5, 15, 30, 60, 120, 180, 240, 360, 480, and 1200 min after the intravenous dose and at 0, 5, 15, 30, 60, 120, 150, 180, 240, 360, 480, and 1200 min after the oral dose. Following centrifugation of the blood samples at 3000× g at 4 °C for 10 min [19], 100 μL aliquots of plasma were stored at −80 °C.
(§2) The half maximal inhibitory concentration (IC50) of KET for the inhibition of the DUT metabolism was determined by the nonlinear regression analysis (GraphPad Prism ver. 5.01; GraphPad Software Inc., San Diego, CA, USA) based on the following Hill equation: y = Min + Max−Min/1 + (x/IC50)^-P where Max and Min are the initial and final y value, respectively, and the exponent P represents the Hill coefficient. Peak plasma concentration (Cmax) and time to reach Cmax (Tmax) were read directly from the observed data. Non-compartmental analysis was conducted to estimate pharmacokinetic parameters such as total area under plasma concentration versus time curve from time zero to time of last sampling (AUClast), total area under plasma concentration versus time curve from time zero to infinity (AUCinf), total plasma clearance (CL), volume of distribution at steady state (Vss), and terminal half-life (t1/2) using the NCA200 and 201 models of WinNonlin ver. 3.1 (Certara USA Inc., Princeton, NJ, USA).

[2] = In vivo pharmacokinetic study in rats, oral DUT without or with KET; set-up: species or system rat; conditions: male, Sprague-Dawley, rat, plasma, po, 5 mg/kg, n = 4
Excerpt: as §1, with “([…])” for “(20 mg/kg) or an oral dose of DUT (5 mg/kg) simultaneously with or without intravenous KET (20 mg/kg)”
as §2

[3] = Stability in rat plasma (QC samples); format: in vitro ADME; conditions: n = 5; for Stability (percent drug remaining), Autosampler: 10 °C for 24 h in the autosampler; for Stability (percent drug remaining), Bench-Top: room temperature for 3 h; for Stability (percent drug remaining), Freeze-Thaw: three freezing and thawing cycles; for Stability (percent drug remaining), Long-Term: −20 °C for 30 days
Experimental: The bioanalytical method proposed herein for the simultaneous determination of DUT and H-DUT was fully validated on the basis of the US FDA guideline. The selectivity of the method was evaluated by comparing chromatograms of the analytes (DUT, H-DUT, and internal standard) in blank rat plasma, blank rat plasma spiked with the analytes, and rat plasma sample obtained from the in vivo rat pharmacokinetic study. Further, the existence of potential interferences at the acquisition windows of the analytes was checked. The linearity of the method was evaluated by adding increasing amounts of DUT and H-DUT to the blank plasma. To construct calibration curves (n = 5), the peak area ratios of DUT or H-DUT to the internal standard (y-axis) were plotted against the nominal concentration ratios of DUT or H-DUT (10–1000 ng/mL) to the internal standard (400 ng/mL) (x-axis), and then, linear regression analysis was performed. The sensitivity was assessed by estimating the LLOQ (signal-to-noise [S/N] ratio > 5). The peaks of the analytes at the LLOQ should be discrete, identifiable, and reproducible with acceptable precision (<20%) and accuracy (within 80–120%). The extraction recovery, matrix effect, dilution integrity, and stability (under bench-top, freeze–thaw, post-preparative, and long-term conditions) in addition to the intra-assay (five different samples) and inter-assay (five different runs) precision and accuracy for each analyte were determined at the LLOQ and three different QC levels as described in the US FDA guidelines and in previous studies.

[4] = set-up: method as in ref 12 (supplement); conditions: ref 12 (supplement); cited from earlier work
DUT metabolism in RLM = assay: Inhibition of DUT metabolism by KET in RLM; format: in vitro ADME, rat; conditions: RLM 1 mg/mL, DUT 5 μM, 90 min
Experimental: (§3) To investigate the metabolic interaction potential between DUT and KET, the disappearance of DUT (5 μM) in RLM and HLM was determined under the absence and presence of KET at various concentrations ranging from 1 to 5000 nM. A microsomal reaction mixture was prepared as follows (total volume: 0.2 mL): 1 mM NADPH, 10 mM MgCl2, substrate (DUT), and inhibitor (KET), RLM or HLM (1 mg/mL), and 50 mM phosphate buffer. […] The unbound fractions of DUT in rat plasma, RLM, human plasma, and HLM were measured using a rapid equilibrium dialysis (RED) device (Thermo Fisher Scientific, Inc., Waltham, MA, USA) as described in a previous study. […] The fraction unbound was calculated as the ratio of the drug concentrations in the “buffer” chamber to those in the “sample” chamber. The blood-to-plasma concentration ratio (RB) of DUT was determined as described previously. […] The concentrations of DUT in the plasma sample were determined by the validated HPLC analysis.
(§4) The half maximal inhibitory concentration (IC50) of KET for the inhibition of the DUT metabolism was determined by the nonlinear regression analysis (GraphPad Prism ver. 5.01; GraphPad Software Inc., San Diego, CA, USA) based on the following Hill equation: y = Min + Max−Min/1 + (x/IC50)^-P where Max and Min are the initial and final y value, respectively, and the exponent P represents the Hill coefficient. […]

[5] = set-up: method as in ref 13 (supplement); conditions: ref 13 (supplement); cited from earlier work
DUT metabolism in HLM = assay: Inhibition of DUT metabolism by KET in HLM; format: in vitro ADME, human
Experimental: as §3, §4

[6] = intravenous DUT 2.5 mg/kg with intravenous KET 20 mg/kg
[7] = intravenous DUT 2.5 mg/kg, DUT alone
[8] = oral DUT 5 mg/kg with oral KET (20 mg/kg)

AUC(0-t) [1, 6]: 1070 ng·h/mL | Cmax [1, 6]: 116 ± 4 ng/mL | AUC(0-t) [1, 7]: 2130 ng·h/mL | Cmax [1, 7]: 141 ± 17 ng/mL | AUC(0-t) [2, 8]: 630 ng·h/mL | Cmax [2, 8]: 62.8 ± 12.3 ng/mL | AUC(0-t) ([2]; oral DUT 5 mg/kg, DUT alone): 1590 ng·h/mL | Cmax ([2]; oral DUT 5 mg/kg, DUT alone): 103 ± 20 ng/mL | Stability (percent drug remaining), Autosampler ([3]; HQC 750 ng/mL): 104 ± 1% | Stability (percent drug remaining), Bench-Top ([3]; HQC 750 ng/mL): 101 ± 0% | Stability (percent drug remaining), Freeze-Thaw ([3]; HQC 750 ng/mL): 101 ± 1% | Stability (percent drug remaining), Long-Term ([3]; HQC 750 ng/mL): 106 ± 1% | Stability (percent drug remaining), Autosampler ([3]; LLOQ 10 ng/mL): 103 ± 4% | Stability (percent drug remaining), Bench-Top ([3]; LLOQ 10 ng/mL): 102 ± 4% | Stability (percent drug remaining), Freeze-Thaw ([3]; LLOQ 10 ng/mL): 101 ± 7% | Stability (percent drug remaining), Long-Term ([3]; LLOQ 10 ng/mL): 96.1 ± 4.7% | Stability (percent drug remaining), Autosampler ([3]; LQC 30 ng/mL): 97.1 ± 0.8% | Stability (percent drug remaining), Bench-Top ([3]; LQC 30 ng/mL): 104 ± 9% | Stability (percent drug remaining), Freeze-Thaw ([3]; LQC 30 ng/mL): 99.0 ± 2.3% | Stability (percent drug remaining), Long-Term ([3]; LQC 30 ng/mL): 95.1 ± 3.7% | Stability (percent drug remaining), Autosampler ([3]; MQC 150 ng/mL): 103 ± 4% | Stability (percent drug remaining), Bench-Top ([3]; MQC 150 ng/mL): 99.0 ± 1.4% | Stability (percent drug remaining), Freeze-Thaw ([3]; MQC 150 ng/mL): 103 ± 3% | Stability (percent drug remaining), Long-Term ([3]; MQC 150 ng/mL): 98.7 ± 1.5%
SMILES: C[C@]12C=CC(=O)N[C@@H]1[C@H](O)C[C@@H]1[C@@H]2CC[C@]2(C)[C@@H](C(=O)Nc3cc(C(F)(F)F)ccc3C(F)(F)F)CC[C@@H]12 [H-DUT, 6β-hydroxydutasteride]

IC50 (DUT metabolism in RLM): 77.3 ± 11.1 nM | IC50 (DUT metabolism in HLM; HLM 1 mg/mL, DUT 5 μM, 90 min): 54.9 ± 15.6 nM | Ki (DUT metabolism in HLM; HLM, fu,mic,KET × IC50 / (S/Km + 1), competitive inhibition assumed, read-out: Ki (unbound inhibition constant)): 48.5 nM
SMILES: CC(=O)N1CCN(c2ccc(OCC3COC(Cn4ccnc4)(c4ccc(Cl)cc4Cl)O3)cc2)CC1 (centres unmarked) [KET, ketoconazole]
fu,mic,KET, unbound fraction in HLM [4]: 0.97 | Imax,u, maximum unbound plasma concentration [5]: 0.0913 µM

Reference: PMC6956158, “In Vitro and In Vivo Assessment of Metabolic Drug Interaction Potential of Dutasteride with Ketoconazole” (Pharmaceutics, 2019)
